Values of other authors in patent US20190259474A1, “GAN-CNN FOR MHC PEPTIDE BINDING PREDICTION” (REGENERON PHARMACEUTICALS, INC., priority 2018, published 2019).

Experiments:
[1] = system: MHC-I protein complex encoded by HLA allele B*14:02; conditions: HLA B*14:02; category transformed from IC50; further: key: binding (1); not binding (−1)
[2] = system: MHC-I protein complex encoded by HLA allele C*03:04; conditions: HLA C*03:04; category transformed from IC50; further: key: binding (1); not binding (−1)
[3] = system: MHC-I protein complex encoded by HLA allele A*68:02; conditions: HLA A*68:02; category transformed from IC50
[4] = biological target: MHC-I protein complex encoded by HLA allele A*02:03 (Homo sapiens, UniProt P04439, A173T/D140Y/D185E/D98H/E277Q/G131W/G231S/I119V/I121R/I166T/I218V/L180W/L300P/L318F/N151K/N90K/P208A/P217A/Q86G/Q94H/R138H/R169H/T345S); conditions: HLA A*02:03; category transformed from IC50; further: key: binding (1); not binding (−1)
[5] = system: MHC-I protein complex encoded by HLA allele A*02:02; conditions: HLA A*02:02; category transformed from IC50
[6] = biological target: MHC-I protein complex encoded by HLA allele A*02:06 (Homo sapiens, UniProt P04439, D140Y/D185E/D98H/E176V/E277Q/F33Y/G131W/G231S/I119V/I121R/I166T/I218V/L300P/L318F/N151K/N90K/P208A/P217A/Q86G/Q94H/R138H/R169H/T345S); conditions: HLA A*02:06; category transformed from IC50
[7] = biological target: MHC-I protein complex encoded by HLA allele A*02:01 (Homo sapiens, UniProt P04439, D140Y/D185E/D98H/E176V/E277Q/G131W/G231S/I119V/I121R/I166T/I218V/L300P/L318F/N151K/N90K/P208A/P217A/Q86G/Q94H/R138H/R169H/T345S); conditions: HLA A*02:01; category transformed from IC50; further: key: binding (1); not binding (−1)
[8] = system: MHC-I protein complex encoded by HLA allele C*16:01; conditions: HLA C*16:01; category transformed from IC50; further: key: binding (1); not binding (−1)
[9] = system: MHC-I protein complex encoded by HLA allele B*48:01; conditions: HLA B*48:01; category transformed from IC50; further: key: binding (1); not binding (−1)
[10] = biological target: MHC-I protein complex encoded by HLA allele A*03:01 (Homo sapiens, UniProt P04439); conditions: HLA A*03:01; category transformed from IC50; further: key: binding (1); not binding (−1)
[11] = system: MHC-I protein complex encoded by HLA allele B*58:01; conditions: HLA B*58:01; category transformed from IC50; further: key: binding (1); not binding (−1)
[12] = system: MHC-I protein complex encoded by HLA allele A829:02; conditions: HLA A829:02; category transformed from IC50; further: key: binding (1); not binding (−1)
[13] = system: MHC-I protein complex encoded by HLA allele B*44:03; conditions: HLA B*44:03; category transformed from IC50; further: key: binding (1); not binding (−1)

Question: For AAAARAAAL (MHC-I binding peptide), which “Binding Category” value [1] is on record?
Answer: 1

Question: For AAADAAAAL (MHC-I binding peptide), which “Binding Category” value [2] is on record?
Answer: 1

Question: For AAAATCALV (MHC-I binding peptide), which “Binding Category” value [3] is on record?
Answer: 1

Question: What about the “Binding Category” value [4] of the same sequence?
Answer: 1

Question: And the “Binding Category” value [5]?
Answer: 1

Question: What about the “Binding Category” value [6] of the same sequence?
Answer: 1

Question: What about the “Binding Category” value [7] of the same sequence?
Answer: 1

Question: Which “Binding Category” value [7] does the source give for AAAAEEEEE (MHC-I binding peptide) here?
Answer: −1

Question: With AAADPKVAF (MHC-I binding peptide) as the sequence, how does the “Binding Category” value [8] read?
Answer: 1

Question: Which “Binding Category” value [1] does the source give for AAAAARAAL (MHC-I binding peptide) here?
Answer: −1

Question: For AAAAFEAAL, which “Binding Category” value [9] is on record?
Answer: 1

Question: With AAAAALQAK (MHC-I binding peptide) as the sequence, how does the “Binding Category” value [10] read?
Answer: 1

Question: Which “Binding Category” value [11] does the source give for AAAAPYAGW (MHC-I binding peptide) here?
Answer: 1

Question: Which “Binding Category” value [8] does the source give for AAAAALWL (MHC-I binding peptide) here?
Answer: 1

Question: With AAAAAAAALY (MHC-I binding peptide) as the sequence, how does the “Binding Category” value [12] read?
Answer: 1

Question: With AAADFAHAE (MHC-I binding peptide) as the sequence, how does the “Binding Category” value [13] read?
Answer: −1
